Here are results for 1 compound from US20250345295A1, “LMK235 COMPOSITIONS AND METHODS” (UNM Rainforest Innovations, priority 2024, published 2025).

In one assay the test system is HDAC5 protein. Description: Western blot of TG HDAC5 protein. It is filed as in vivo, mouse. Conditions: for TG HDAC5 protein levels: LMK235 treatment. How it is done: Mice were euthanized with pentobarbital (FatalPlus, 480 mg/kg) and both ipsilateral and contralateral TG were removed. TG were washed immediately in PBS and stored at −80° C. Protein from TG tissue was extracted following homogenization using a pestle and 500 μL of 1× RIPA buffer (Thermo Fisher Scientific, Inc., Waltham, MA, Cat #89,900). Samples were put on a rocking shaker for two hours and then centrifuged, and the supernatant removed to a new tube. Sample was assayed for total protein (Bradford, Thermo Fisher Scientific, Inc., Waltham, MA). Samples were then prepared for electrophoresis by mixing with 2× sample buffer and boiling for five minutes at 100° C. for denaturation.
Proteins were loaded on a 12% Tris-Glycine polyacrylamide gradient gel (Bio-Rad Laboratories, Inc., Hercules, CA) and transferred to a PVDF membrane (MilliporeSigma, Burlington, MA). Membrane was blocked for an hour with 5% nonfat milk in TBST buffer at room temperature and incubated at 4° C. with anti-HDAC5 antibody overnight (Abcam, Cambridge, UK, #ab55403, #ab2772, #ab170935). The membrane was subsequently washed with TBST and then incubated with anti-rabbit secondary with HRP for one hour at room temperature (Abcam ab6721, diluted 1:1000 in TBST). The washing was repeated and then the blot developed with chemiluminescent substrate (Thermo Fisher Scientific, Inc., Waltham, MA Cat #32,106). The blot was then imaged using a Li-Cor Odyssey FC imaging system. Signal intensity was normalized to actin (Abcam ab8227, 1:2000) or tubulin (Abcam #ab10287), which was used as a loading control. Signal intensity was analyzed using ImageJ for comparisons.
For orientation: In western blotting, separated proteins are transferred to a membrane and probed.

Assay [1] deals with mice with trigeminal nerve injury. Description: Light/dark place preference test (anxiety-like behavior). The note with it: nerve-injured mice, weeks 6-9 post surgery. It is filed as in vivo, mouse. The procedure:
Anxiety-related behaviors were assessed in a manner typical in the literature—i.e., once at the end in week 8 since anxiety develops only in mice 6-8 weeks after persisting nerve injury (e.g., Lyons et al., Neuroscience 2015 Jun. 4; 295:126-138). The effects of HDACi on chronic craniofacial pain-related behaviors were assessed using light/dark place preference test and zero maze.
Animals were exposed to acoustic startle (5 minutes) immediately prior to placement in the light/dark place preference box as in a previous study (Lyons et al., Neuroscience 2015 Jun. 4; 295:126-138). Mils acoustic startle stress just prior to the test induces panic anxiety-like behavior with increased time and entries in the open arms compared to controls (de Paula HMG, Hoshino K, Behav Brain Res 2003 Dec. 17; 147(1-2):157-162; de Paula HMG, Hoshino K, Physiol Behav 2004 January; 80(4):459-464; Kontinen et al., Pain 1999 March;80(1-2):341-346). In the light/dark box place preference task (total time 10 minutes) anxiety-like behaviors were recorded as: (i) total time spent in the light area, (ii) number of entries into the light area, (iii) number of rearing events/exploratory behavior, (iv) latency of the first transition into the light chamber, and (v) latency of first re-entry (transition) back into the dark chamber.

The test system of assay [2] is small (<30 μm) TG neurons from naïve mice. Description: Whole-cell patch-clamp electrophysiology, TG neurons from naïve mice. The format is cell-based, mouse. The note with it: 13 μM for one hour vs 0.1% DMSO. The procedure:
The excitability of TG neurons is directly linked to the pathophysiology of trigeminal neuropathic pain. In order to determine the effect of LMK235 on TG neurons from FRICT-ION mice, whole-cell patch-clamp electrophysiological recordings were made from small (<30 μm) TG neurons in the presence of LMK235 (13 μM) or vehicle (0.1% DMSO). TG neurons were obtained from FRICT-ION mice at three weeks post injury or naïve mice. The TG neurons were treated for one hour in vitro with either LMK235 or vehicle control prior to recording (FIG. 7).
Neurons with a diameter of <30 μm were identified by infrared differential interference contrast (IR-DIC) imaging with a microscope connected to an Olympus digital camera. Current clamp recordings were performed using a Molecular Devices Multiclamp 700B (Scientifica, UK). Signals were filtered at 5 KHz, acquired at 50 KHz using a Molecular Devices 1550B converter (Scientifica, UK) and recorded using Clampex 11 software (Molecular Devices, Scientifica, UK). Electrodes were pulled with a Zeitz puller (Werner Zeitz, Martinsreid, Germany) from borosilicate thick glass (GC150F, Sutter Instruments). Electrode resistance was 5-8 MΩ. Bridge balance was applied to all recordings. Intracellular solution contained (in mM) 125 K-gluconate, 6 KCl, 10 HEPES, 0.1 EGTA, 2 Mg-ATP, pH 7.3 with KOH, and osmolarity of 290-310 mOsm. Artificial cerebrospinal fluid (aCSF) contained (in mM) 113 NaCl, 3 KCl, 25 NaHCO3, 1 NaH2PO4, 2 CaCl2), 2 MgCl2, and 11-glucose. For whole-cell current clamp recordings, to evaluate the basic input-output action potential frequency response to hyperpolarization and depolarization, DC current was injected from 0 pA to +200 pA in 10-pA increments for a duration of 500 milliseconds at the cell's intrinsic resting membrane potential. Data acquisition was sampled at 20 kHz and filtered at 2.4 kHz. Recordings with a series resistance greater than 20 MΩ were discarded, and series resistance was compensated to 70%. In response to a −100 pA hyperpolarizing pulse with 500 millisecond duration, voltage sag amplitude was measured. Sag ratio was calculated using the following equation as described previously (Fan et al., Front Cell Neurosci 2016 Mar. 24; 10:74):
where Vpeak is the maximum voltage deflection and Vss is the steady state voltage at the end of the hyperpolarizing pulse.
Male mice were euthanized three weeks after inducing the FRICT-ION model. The TG were dissected, minced, and dissociated in an enzymatic combination containing sterile, calcium-free, and magnesium-free HBSS (Cat #14170112, Gibco), papain suspension (32.7 U/mgP, Cat #LS003126; Worthington, Lakewood, NJ), L-Cysteine (Cat #C7352-25g, Sigma), and saturated bicarbonate (Cat #S5761-500g, Sigma) solution. […]
(The patch-clamp technique gives a direct electrical read-out from membranes.)

Entries after “also recorded” stand apart in the source; their conditions may differ.

`Cc1cc(C)cc(C(=O)NOCCCCCC(=O)NO)c1` [LMK235, N-[[6-(Hydroxyamino)-6-oxohexyl]oxy]-3,5-dimethyl-benzamide]: in the assay on HDAC5 protein (LMK235-treated FRICT-ION mice, males and females), the “TG HDAC protein levels vs untreated FRICT-ION mice” value is on record as “significantly lower”. Further, the “TG HDAC5 protein levels” value with HDAC5 protein (female FRICT-ION mice) is “to naïve levels”. Besides, the “TG HDAC5 protein levels” value in the assay on HDAC5 protein (male FRICT-ION mice) is listed as “below naïve levels”. In assay [1], the “anxiety-like behaviors, light/dark box test” value is “reduction of anxiety measures; also recorded: inhibited the development of anxiety-like behaviors”. In addition, in assay [2], the electrophysiological properties result was “not significantly altered”, the “resting membrane potential (RMP)” value is given as “no significant differences”, the rheobase entry is given as “no significant differences” and the sag ratio entry is listed as “no effect”.
